Laboratory results as given in patent US11376216B2, “Periodontal disease therapy” (New York University, priority 2018, dated 2022).

Legend:
[1] = target: T1, Human Succinate Receptor 1 (Homo sapiens, UniProt Q9BXA5); assay: Human Succinate Receptor 1 AequoScreen cell line calcium signal upon succinate activation; type: cell-based; settings: succinate 500 μM, read-out: inhibition of SucnR1 activation by succinate
T1 sequence (Q9BXA5 1-334): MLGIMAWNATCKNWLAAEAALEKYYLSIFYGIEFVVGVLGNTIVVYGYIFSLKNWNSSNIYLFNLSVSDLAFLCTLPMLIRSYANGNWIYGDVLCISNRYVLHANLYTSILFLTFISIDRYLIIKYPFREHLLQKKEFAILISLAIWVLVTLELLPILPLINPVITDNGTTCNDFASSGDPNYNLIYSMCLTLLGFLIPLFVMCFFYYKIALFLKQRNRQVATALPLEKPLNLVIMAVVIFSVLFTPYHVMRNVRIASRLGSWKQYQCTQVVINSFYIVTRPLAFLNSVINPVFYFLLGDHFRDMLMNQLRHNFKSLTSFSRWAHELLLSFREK
Experimental: Human Succinate Receptor 1 AequoScreen® Cell Line (PerkinElmer ES-744-A) was used to assess the activity of SUCNR1 upon activation by ligand (succinate 500 μM) in the presence and absence of antagonists. Cells were seeded at 5,000 cells/well for 24 hour before the calcium dye was added. Forty-five minutes later, the antagonists were added at indicated concentrations. Fifteen minutes later, the ligand was added and the fluorescent signal (EX/EM: 485/525) was measured immediately on a plate reader. A) The efficacy of 3 newly synthesized compounds in comparison with 4C at the same concentration. (*p<0.05, **p<0.001 by t-test in comparison to ligand alone post One-Way ANOVA) B) Dose effects of the compound 7a at various concentrations. (*p<0.05, **p<0.001 in comparison to […] by t-test post One-Way ANOVA).
Structure-activity relationship studies were performed using the compounds depicted in FIG. 7. The structure and purity of the compounds were confirmed via HPLC and NMR. At the same concentration of 4C, these antagonists inhibited the activation of SucnR1 by succinate in vitro (FIG. 8A).

[2] = tested on: osteoclast culture derived from ficoll processed mouse bone marrow cells; assay: Succinate-stimulated osteoclastogenesis in bone marrow osteoclast cultures (TRAP staining); type: cell-based; settings: 1 mM succinate, in vitro
Experimental: (§1) (A) “4C” structure with NMR in dimethyl sulfoxide (DMSO). (B) Purity by high-performance liquid chromatography (HPLC). Ficoll processed non-adherent bone marrow cells were seeded at 20,000 per well in 96-well-plate and stimulated with the indicated concentration of cytokines (macrophage-colony stimulating factor (M-CSF), 30 ng ml^−1 from day 1; receptor activator of nuclear factor kappa-B ligand (RANKL), 50 ng ml^−1 from day 3); fresh cytokines were added every other day. (C) No cytotoxicity of 4C to the proliferation of osteoclast (OC) progenitors (without RANKL and M-CSF). (D-E) Representative TRAP staining images and analysis of WT mouse bone marrow in vitro OC cultures treated with 1 mM succinate or control in the presence of SucnR1 antagonist 4C at indicated concentrations. **p<0.01, *** p<0.001 according to Bonferroni post hoc test after ANOVA, N=5.
(§2) The structure of the synthetic antagonist of SucnR1 4C was authenticated using nuclear magnetic resonance spectroscopy (FIG. 2A) with a purity of 98.002% according to high-performance liquid chromatography (FIG. 2B).

[3] = tested on: pre-osteoclastic cells; assay: Viability/proliferation of osteoclast progenitors (cytotoxicity of 4C); type: cell-based, mouse; settings: at up to 100 μM; without RANKL and M-CSF
Experimental: as §1, §2

Row | SMILES | inhibition at 20 µM [1] [%] | reduction of succinate stimulation of osteoclastogenesis ([2]; 4C at 0.1 μM) | reduction of succinate stimulation of osteoclastogenesis ([2]; 4C at 10 μM) | inhibitory effect on the viability of pre-osteoclastic cells [3]
1 | CNC(=O)Cc1ccc(-c2ccc3cccnc3n2)cc1 [Cpd-7a] | 50 | – | – | –
2 | C[C@H](NC(=O)Cc1ccc(-c2ccc3cccnc3n2)cc1)c1ccc(-c2ccc(F)c(C(F)(F)F)c2)cc1 [4C] | – | started to reduce the stimulation of succinate | completely erase the simulation of osteoclastogenesis by succinate | no inhibitory effect
